{"source": "paper PMC4794209", "about": "“Preformulation Studies on Piperlongumine” (PLoS ONE, 2016)", "key": {"[1]": {"experiment": "Aqueous stability studies (pH, temperature, ionic strength)", "format": "physicochemical", "method": "Aqueous stability studies for piperlongumine were conducted in three buffer systems: citrate (pH 3, 4, and 5); phosphate (pH 5, 6, and 7); and borate (pH 8 and 9). The ionic strength for the solutions was also varied, utilizing approximately 0.2 or 0.5 M. Each buffered sample was prepared with 10% acetonitrile as a cosolvent, then sealed and protected from light. Samples were stored at four different temperatures: 4°C (for samples at pH 3, 8 and 9 only), 26°C, 56°C and 67°C. Aliquots were regularly withdrawn for analysis. Changes in pH, if any, were also monitored. Stability studies were carried out for 18 months or until complete degradation occurred.\nApparent first order degradation was also obtained for the 4, […] and 67°C degradation profiles. Degradation rate constants, k-values, for piperlongumine were calculated using the slopes of the trend lines of each profile.\nAn Arrhenius plot of log k versus the reciprocal of the temperature (Fig 9) was utilized to determine the length of time it takes for piperlongumine to degrade 50% (T50) and 10% (T90). For a given pH the Arrhenius equation was utilized: Log k = log A − (Ea/2.303 RT) (1) Where: […]"}, "[2]": {"experiment": "Solubility studies (excess drug, agitation at least 24 h, HPLC)", "format": "physicochemical"}, "[3]": {"conditions": "pH 3, citrate, ionic strength 0.2, 25°C"}, "[4]": {"conditions": "pH 3, citrate, ionic strength 0.5, 25°C"}, "[5]": {"conditions": "pH 5, citrate, ionic strength 0.2, 25°C"}, "[6]": {"conditions": "pH 5, phosphate, ionic strength 0.2, 25°C"}, "[7]": {"conditions": "pH 5, phosphate, ionic strength 0.5, 25°C"}, "[8]": {"conditions": "pH 6, phosphate, ionic strength 0.2, 25°C"}, "[9]": {"conditions": "pH 7, phosphate, ionic strength 0.2, 25°C"}, "[10]": {"conditions": "pH 8, borate, ionic strength 0.2, 25°C"}, "[11]": {"conditions": "pH 9, borate, ionic strength 0.2, 25°C"}, "[12]": {"conditions": "pH 9, borate, ionic strength 0.5, 25°C"}}, "data": [{"compound": "COc1cc(/C=C/C(=O)N2CCC=CC2=O)cc(OC)c1OC", "note": "[piperlongumine, 1-[(2E)-3-(3,4,5-trimethoxyphenyl)prop-2-enoyl]-1,2,5,6-tetrahydropyridin-2-one]", "values": [{"measurement": "Effect of ionic strength on degradation rate", "setting": "[1]; 0.2 M vs 0.5 M, pH 9, borate buffer", "result": "No difference in degradation rate"}, {"measurement": "Kinetics of thermal degradation", "setting": "[1]; 56°C, several pH conditions", "result": "first order degradation kinetics"}, {"measurement": "Effect of buffer species on degradation rate", "setting": "[1]; citrate vs phosphate, pH 5", "result": "degradation rates are similar"}, {"measurement": "Effect of ionic strength on stability half-life", "setting": "[1]; increase from approximately 0.2 M to 0.5 M, pH 3 and pH 5", "result": "nominal effects"}, {"measurement": "Ea", "setting": "[1]; pH 3, citrate, ionic strength 0.2", "result": 88.5, "unit": "kJ/mol"}, {"measurement": "T50 at 25°C", "setting": "[1]; [3]", "result": 69.6, "unit": "weeks"}, {"measurement": "T90 at 25°C", "setting": "[1]; [3]", "result": 10.6, "unit": "weeks"}, {"measurement": "k values 26°C", "setting": "[1]; pH 3, citrate, ionic strength 0.2, 26°C", "result": 0.0110, "unit": "weeks^-1"}, {"measurement": "k values 56°C", "setting": "[1]; pH 3, citrate, ionic strength 0.2, 56°C", "result": 0.3057, "unit": "weeks^-1"}, {"measurement": "k values 67°C", "setting": "[1]; pH 3, citrate, ionic strength 0.2, 67°C", "result": 0.7808, "unit": "weeks^-1"}, {"measurement": "Ea", "setting": "[1]; pH 3, citrate, ionic strength 0.5", "result": 92.3, "unit": "kJ/mol"}, {"measurement": "T50 at 25°C", "setting": "[1]; [4]", "result": 75.4, "unit": "weeks"}, {"measurement": "T90 at 25°C", "setting": "[1]; [4]", "result": 11.5, "unit": "weeks"}, {"measurement": "k values 26°C", "setting": "[1]; pH 3, citrate, ionic strength 0.5, 26°C", "result": 0.0101, "unit": "weeks^-1"}, {"measurement": "k values 56°C", "setting": "[1]; pH 3, citrate, ionic strength 0.5, 56°C", "result": 0.3413, "unit": "weeks^-1"}, {"measurement": "k values 67°C", "setting": "[1]; pH 3, citrate, ionic strength 0.5, 67°C", "result": 0.8383, "unit": "weeks^-1"}, {"measurement": "T90 without hydrogen peroxide", "setting": "[1]; pH 3 citrate, 26°C, from Table 1", "result": "about 9.5 weeks"}, {"measurement": "Ea", "setting": "[1]; pH 4, citrate, ionic strength 0.2", "result": 84.8, "unit": "kJ/mol"}, {"measurement": "T50 at 25°C", "setting": "[1]; pH 4, citrate, ionic strength 0.2, 25°C", "result": 112.9, "unit": "weeks"}, {"measurement": "k values 26°C", "setting": "[1]; pH 4, citrate, ionic strength 0.2, 26°C", "result": 0.0067, "unit": "weeks^-1"}, {"measurement": "k values 56°C", "setting": "[1]; pH 4, citrate, ionic strength 0.2, 56°C", "result": 0.1739, "unit": "weeks^-1"}, {"measurement": "k values 67°C", "setting": "[1]; pH 4, citrate, ionic strength 0.2, 67°C", "result": 0.3813, "unit": "weeks^-1"}, {"measurement": "Ea", "setting": "[1]; pH 5, citrate, ionic strength 0.2", "result": 86.7, "unit": "kJ/mol"}, {"measurement": "T50 at 25°C", "setting": "[1]; [5]", "result": 87.6, "unit": "weeks"}, {"measurement": "T90 at 25°C", "setting": "[1]; [5]", "result": 13.3, "unit": "weeks"}, {"measurement": "k values 26°C", "setting": "[1]; pH 5, citrate, ionic strength 0.2, 26°C", "result": 0.0090, "unit": "weeks^-1"}, {"measurement": "k values 56°C", "setting": "[1]; pH 5, citrate, ionic strength 0.2, 56°C", "result": 0.2045, "unit": "weeks^-1"}, {"measurement": "k values 67°C", "setting": "[1]; pH 5, citrate, ionic strength 0.2, 67°C", "result": 0.6125, "unit": "weeks^-1"}, {"measurement": "Ea", "setting": "[1]; pH 5, phosphate, ionic strength 0.2", "result": 89.9, "unit": "kJ/mol"}, {"measurement": "T50 at 25°C", "setting": "[1]; [6]", "result": 101.5, "unit": "weeks"}, {"measurement": "T90 at 25°C", "setting": "[1]; [6]", "result": 15.4, "unit": "weeks"}, {"measurement": "k values 26°C", "setting": "[1]; pH 5, phosphate, ionic strength 0.2, 26°C", "result": 0.0076, "unit": "weeks^-1"}, {"measurement": "k values 56°C", "setting": "[1]; pH 5, phosphate, ionic strength 0.2, 56°C", "result": 0.2201, "unit": "weeks^-1"}, {"measurement": "k values 67°C", "setting": "[1]; pH 5, phosphate, ionic strength 0.2, 67°C", "result": 0.5741, "unit": "weeks^-1"}, {"measurement": "Ea", "setting": "[1]; pH 5, phosphate, ionic strength 0.5", "result": 84.8, "unit": "kJ/mol"}, {"measurement": "T50 at 25°C", "setting": "[1]; [7]", "result": 88.7, "unit": "weeks"}, {"measurement": "T90 at 25°C", "setting": "[1]; [7]", "result": 13.5, "unit": "weeks"}, {"measurement": "k values 26°C", "setting": "[1]; pH 5, phosphate, ionic strength 0.5, 26°C", "result": 0.0090, "unit": "weeks^-1"}, {"measurement": "k values 56°C", "setting": "[1]; pH 5, phosphate, ionic strength 0.5, 56°C", "result": 0.1764, "unit": "weeks^-1"}, {"measurement": "k values 67°C", "setting": "[1]; pH 5, phosphate, ionic strength 0.5, 67°C", "result": 0.5741, "unit": "weeks^-1"}, {"measurement": "Ea", "setting": "[1]; pH 6, phosphate, ionic strength 0.2", "result": 95.0, "unit": "kJ/mol"}, {"measurement": "T50 at 25°C", "setting": "[1]; [8]", "result": 75.5, "unit": "weeks"}, {"measurement": "T90 at 25°C", "setting": "[1]; [8]", "result": 11.5, "unit": "weeks"}, {"measurement": "k values 26°C", "setting": "[1]; pH 6, phosphate, ionic strength 0.2, 26°C", "result": 0.0108, "unit": "weeks^-1"}, {"measurement": "k values 56°C", "setting": "[1]; pH 6, phosphate, ionic strength 0.2, 56°C", "result": 0.2919, "unit": "weeks^-1"}, {"measurement": "k values 67°C", "setting": "[1]; pH 6, phosphate, ionic strength 0.2, 67°C", "result": 1.1652, "unit": "weeks^-1"}, {"measurement": "Ea", "setting": "[1]; pH 7, phosphate, ionic strength 0.2", "result": 94.0, "unit": "kJ/mol"}, {"measurement": "T50 at 25°C", "setting": "[1]; [9]", "result": 16.0, "unit": "weeks"}, {"measurement": "T90 at 25°C", "setting": "[1]; [9]", "result": 2.4, "unit": "weeks"}, {"measurement": "k values 26°C", "setting": "[1]; pH 7, phosphate, ionic strength 0.2, 26°C", "result": 0.0506, "unit": "weeks^-1"}, {"measurement": "k values 56°C", "setting": "[1]; pH 7, phosphate, ionic strength 0.2, 56°C", "result": 1.3607, "unit": "weeks^-1"}, {"measurement": "k values 67°C", "setting": "[1]; pH 7, phosphate, ionic strength 0.2, 67°C", "result": 5.1370, "unit": "weeks^-1"}, {"measurement": "Ea", "setting": "[1]; pH 8, borate, ionic strength 0.2", "result": 83.0, "unit": "kJ/mol"}, {"measurement": "k values 4°C", "setting": "[1]; pH 8, borate, ionic strength 0.2, 4°C", "result": 0.0232, "unit": "weeks^-1"}, {"measurement": "T50 at 25°C", "setting": "[1]; [10]", "result": 2.0, "unit": "weeks"}, {"measurement": "T90 at 25°C", "setting": "[1]; [10]", "result": 0.3, "unit": "weeks"}, {"measurement": "k values 26°C", "setting": "[1]; pH 8, borate, ionic strength 0.2, 26°C", "result": 0.5120, "unit": "weeks^-1"}, {"measurement": "k values 56°C", "setting": "[1]; pH 8, borate, ionic strength 0.2, 56°C", "result": 7.2924, "unit": "weeks^-1"}, {"measurement": "k values 67°C", "setting": "[1]; pH 8, borate, ionic strength 0.2, 67°C", "result": 20.933, "unit": "weeks^-1"}, {"measurement": "Ea", "setting": "[1]; pH 9, borate, ionic strength 0.2", "result": 94.8, "unit": "kJ/mol"}, {"measurement": "k values 4°C", "setting": "[1]; pH 9, borate, ionic strength 0.2, 4°C", "result": 0.1182, "unit": "weeks^-1"}, {"measurement": "T50 at 25°C", "setting": "[1]; [11]", "result": 0.3, "unit": "weeks"}, {"measurement": "T90 at 25°C", "setting": "[1]; [11]", "result": 0.05, "unit": "weeks"}, {"measurement": "k values 26°C", "setting": "[1]; pH 9, borate, ionic strength 0.2, 26°C", "result": 2.4375, "unit": "weeks^-1"}, {"measurement": "Ea", "setting": "[1]; pH 9, borate, ionic strength 0.5", "result": 95.1, "unit": "kJ/mol"}, {"measurement": "k values 4°C", "setting": "[1]; pH 9, borate, ionic strength 0.5, 4°C", "result": 0.1171, "unit": "weeks^-1"}, {"measurement": "T50 at 25°C", "setting": "[1]; [12]", "result": 0.3, "unit": "weeks"}, {"measurement": "T90 at 25°C", "setting": "[1]; [12]", "result": 0.05, "unit": "weeks"}, {"measurement": "k values 26°C", "setting": "[1]; pH 9, borate, ionic strength 0.5, 26°C", "result": 2.4372, "unit": "weeks^-1"}, {"measurement": "pH of maximum stability", "setting": "[1]; pH degradation rate profile, 26, 56, 67°C", "result": "~4"}, {"measurement": "Stability in pH degradation rate profile", "setting": "[1]; pH values ≥ 7 and 3, various temperatures", "result": "significant instability"}, {"measurement": "Major degradation products", "setting": "[1]; stability samples at pH 3, 5 and 8, LC-MS", "result": "3,4,5- trimethoxycinnamic acid and piperlongumic acid"}, {"measurement": "Water solubility as a function of pH", "setting": "[2]", "result": "does not change as a function of pH"}]}]}
